# Laboratory results published in patent publication US10670605B2, “Cysteine reactive probes and uses thereof” (The Scripps Research Institute, priority 2015, dated 2020).
# Counter-ions that a name gives are not always drawn.
# Experiments:
# Test in all cases: isoTOP-ABPP of compound-treated primary human T cells
# Format in all cases: cell-based
# [1] = molecular target: T1, Cys residues in primary human T cells (Homo sapiens, UniProt P29590); settings: PML C479 (P29590)
# T1 sequence (P29590 1-882): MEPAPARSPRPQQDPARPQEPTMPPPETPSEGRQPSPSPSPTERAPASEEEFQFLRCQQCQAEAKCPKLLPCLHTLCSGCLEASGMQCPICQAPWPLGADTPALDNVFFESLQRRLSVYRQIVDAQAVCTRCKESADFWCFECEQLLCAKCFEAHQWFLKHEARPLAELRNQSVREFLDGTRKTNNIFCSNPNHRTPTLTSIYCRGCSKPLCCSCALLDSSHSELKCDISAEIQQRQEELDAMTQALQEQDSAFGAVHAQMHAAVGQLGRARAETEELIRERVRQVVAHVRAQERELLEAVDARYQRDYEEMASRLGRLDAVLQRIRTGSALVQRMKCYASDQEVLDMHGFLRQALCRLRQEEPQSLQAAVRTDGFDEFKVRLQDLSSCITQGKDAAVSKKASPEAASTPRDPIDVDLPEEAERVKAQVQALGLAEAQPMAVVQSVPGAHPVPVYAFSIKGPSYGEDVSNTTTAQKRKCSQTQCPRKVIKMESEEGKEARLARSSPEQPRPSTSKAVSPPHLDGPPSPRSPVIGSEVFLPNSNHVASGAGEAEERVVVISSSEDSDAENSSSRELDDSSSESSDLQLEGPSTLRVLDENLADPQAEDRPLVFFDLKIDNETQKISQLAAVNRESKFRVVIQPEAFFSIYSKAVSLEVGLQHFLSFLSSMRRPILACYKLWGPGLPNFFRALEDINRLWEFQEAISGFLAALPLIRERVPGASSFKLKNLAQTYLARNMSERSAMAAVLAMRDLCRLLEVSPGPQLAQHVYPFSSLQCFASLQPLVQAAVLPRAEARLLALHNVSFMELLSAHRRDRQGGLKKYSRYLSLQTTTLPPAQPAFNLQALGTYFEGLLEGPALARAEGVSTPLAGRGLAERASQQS
# [2] = molecular target: T2, Cys residues in primary human T cells (Homo sapiens, UniProt Q16548)
# T2 sequence (Q16548 1-175): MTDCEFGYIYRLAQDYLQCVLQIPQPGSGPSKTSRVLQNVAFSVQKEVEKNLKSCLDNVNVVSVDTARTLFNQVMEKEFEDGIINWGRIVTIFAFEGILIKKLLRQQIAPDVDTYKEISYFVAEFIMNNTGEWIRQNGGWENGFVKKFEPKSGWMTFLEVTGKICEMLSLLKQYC
# [3] = molecular target: Cys residues in primary human T cells (Homo sapiens, UniProt Q8IYQ7); settings: THNSL1 C324 (Q8IYQ7)
# Chain of Cys residues in primary human T cells (Homo sapiens, UniProt Q8IYQ7) (Q8IYQ7 whole entry): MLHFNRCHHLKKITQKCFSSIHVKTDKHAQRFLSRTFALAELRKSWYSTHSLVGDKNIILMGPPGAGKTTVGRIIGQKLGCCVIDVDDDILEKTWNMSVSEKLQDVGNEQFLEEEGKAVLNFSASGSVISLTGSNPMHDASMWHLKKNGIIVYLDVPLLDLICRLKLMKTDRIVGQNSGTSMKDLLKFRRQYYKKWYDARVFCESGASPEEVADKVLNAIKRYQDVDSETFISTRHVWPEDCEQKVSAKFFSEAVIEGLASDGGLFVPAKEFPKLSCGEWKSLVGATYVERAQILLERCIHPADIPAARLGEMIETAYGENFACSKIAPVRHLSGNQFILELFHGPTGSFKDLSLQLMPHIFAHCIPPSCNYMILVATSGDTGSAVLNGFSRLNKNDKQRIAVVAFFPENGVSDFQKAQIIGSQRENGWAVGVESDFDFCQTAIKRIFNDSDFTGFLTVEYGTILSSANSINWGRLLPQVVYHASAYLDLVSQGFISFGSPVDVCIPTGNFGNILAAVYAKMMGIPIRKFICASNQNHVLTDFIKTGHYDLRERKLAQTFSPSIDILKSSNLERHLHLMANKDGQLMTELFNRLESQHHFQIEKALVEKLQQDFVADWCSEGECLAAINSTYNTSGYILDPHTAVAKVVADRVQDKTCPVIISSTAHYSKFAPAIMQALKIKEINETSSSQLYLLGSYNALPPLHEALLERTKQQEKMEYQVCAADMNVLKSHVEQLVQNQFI
# [4] = molecular target: Cys residues in primary human T cells (Homo sapiens, UniProt Q8N2G8); settings: GHDC C502 (Q8N2G8)
# Chain of Cys residues in primary human T cells (Homo sapiens, UniProt Q8N2G8) (Q8N2G8 18-530): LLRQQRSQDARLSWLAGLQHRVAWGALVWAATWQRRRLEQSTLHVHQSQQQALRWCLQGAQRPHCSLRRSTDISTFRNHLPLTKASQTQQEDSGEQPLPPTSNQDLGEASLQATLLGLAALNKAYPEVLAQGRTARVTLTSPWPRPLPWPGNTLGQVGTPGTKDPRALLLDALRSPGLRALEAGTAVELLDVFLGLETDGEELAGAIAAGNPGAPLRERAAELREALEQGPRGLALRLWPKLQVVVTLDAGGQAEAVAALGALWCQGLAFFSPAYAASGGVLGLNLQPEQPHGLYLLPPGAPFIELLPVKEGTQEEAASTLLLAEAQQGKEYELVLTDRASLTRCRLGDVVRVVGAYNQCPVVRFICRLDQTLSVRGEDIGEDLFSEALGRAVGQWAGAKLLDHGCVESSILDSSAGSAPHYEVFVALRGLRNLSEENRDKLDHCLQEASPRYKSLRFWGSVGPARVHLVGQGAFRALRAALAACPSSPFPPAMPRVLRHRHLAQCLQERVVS
# [5] = molecular target: T3, Cys residues in primary human T cells (Homo sapiens, UniProt Q9Y2W6); settings: TDRKH C109 (Q9Y2W6)
# T3 sequence (Q9Y2W6 1-561): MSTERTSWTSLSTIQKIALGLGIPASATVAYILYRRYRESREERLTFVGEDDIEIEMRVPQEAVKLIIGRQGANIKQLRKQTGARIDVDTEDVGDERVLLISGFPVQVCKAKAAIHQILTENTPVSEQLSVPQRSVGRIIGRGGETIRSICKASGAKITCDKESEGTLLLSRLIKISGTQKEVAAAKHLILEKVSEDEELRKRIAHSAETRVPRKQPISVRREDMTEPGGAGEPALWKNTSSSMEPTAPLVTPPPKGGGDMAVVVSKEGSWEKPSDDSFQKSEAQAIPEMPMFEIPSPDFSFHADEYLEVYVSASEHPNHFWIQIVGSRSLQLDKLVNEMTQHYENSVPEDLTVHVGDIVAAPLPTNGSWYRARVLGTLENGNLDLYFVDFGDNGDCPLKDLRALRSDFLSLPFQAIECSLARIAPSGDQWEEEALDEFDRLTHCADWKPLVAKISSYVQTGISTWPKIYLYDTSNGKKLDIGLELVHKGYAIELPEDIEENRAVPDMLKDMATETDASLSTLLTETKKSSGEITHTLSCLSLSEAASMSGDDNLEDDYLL
smiles,measurement,setting,value
"COC(=O)/C=C/C(=O)OC [DMF, dimethyl fumarate]",R value (DMSO/DMF),[1]; DMF 10 μM 4h,2.1
same,R value (DMSO/DMF),[1]; DMF 25 μM 4h,2.17
same,R value (DMSO/DMF),[1]; DMF 50 μM 2h,4.57
same,R value (DMSO/DMF),"[2]; BCL2A1 C19 (Q16548), DMF 10 μM 4h","1,15"
same,R value (DMSO/DMF),"[2]; BCL2A1 C19 (Q16548), DMF 25 μM 4h",2.19
same,R value (DMSO/DMF),"[2]; BCL2A1 C19 (Q16548), DMF 50 μM 2h",2.09
same,R value (DMSO/DMF),"[2]; BCL2A1 C19 (Q16548), DMF 50 μM 4h",4.16
same,R value (DMSO/DMF),"[2]; BCL2A1 C55 (Q16548), DMF 50 μM 4h",7.18
same,R value (DMSO/DMF),[3]; DMF 50 μM 1h,15.93
same,R value (DMSO/DMF),[3]; DMF 50 μM 2h,19.36
same,R value (DMSO/DMF),[4]; DMF 50 μM 1h,4.23
same,R value (DMSO/DMF),[4]; DMF 50 μM 2h,20
same,R value (DMSO/DMF),[5]; DMF 10 μM 4h,2.34
same,R value (DMSO/DMF),[5]; DMF 50 μM 1h,4
same,R value (DMSO/DMF),[5]; DMF 50 μM 2h,20
same,R value (DMSO/DMF),[5]; DMF 50 μM 4h,20
